Experimental data as given in patent publication US6245780A, “Tetrahydroisoquinolinyl-indole derivatives for the treatment of depression” (American Home Products Corp, priority 2000, dated 2001).
pKi: −log10 of the molar value. Like-named read-outs stand apart in the source and are kept apart here.

Experiments:
human 5-HT1A receptor = target: T1, human 5-HT1A receptor (Homo sapiens, UniProt P08908); test: human 5-HT1A receptor binding, [3H]8-OH-DPAT radioligand, membranes of 5-HT1A.CHO cells; conditions: for inhibition at 1 µM: 1 uM compound, value in parentheses, read-out: 5-HT1A % inh @ 1 uM
T1 construct: expressed in transfected cells; host or cells: Chinese hamster ovary cells (5-HT1A.CHO)
T1 sequence (P08908 1-422): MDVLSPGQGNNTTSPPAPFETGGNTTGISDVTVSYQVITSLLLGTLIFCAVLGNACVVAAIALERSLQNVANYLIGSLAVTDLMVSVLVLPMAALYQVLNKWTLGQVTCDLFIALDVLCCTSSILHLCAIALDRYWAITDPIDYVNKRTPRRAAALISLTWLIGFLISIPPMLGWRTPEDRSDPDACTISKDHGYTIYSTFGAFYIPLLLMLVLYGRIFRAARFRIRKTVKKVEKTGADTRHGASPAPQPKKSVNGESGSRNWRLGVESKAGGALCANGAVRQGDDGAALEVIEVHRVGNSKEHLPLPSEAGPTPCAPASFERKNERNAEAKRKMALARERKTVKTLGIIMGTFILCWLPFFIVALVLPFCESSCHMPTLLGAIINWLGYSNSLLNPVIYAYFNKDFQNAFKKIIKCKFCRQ
Experimental: (§1) The PCR cloning of the human 5-HT1A receptor subtype from a human genomic library has been described previously by Chanda et al., Mol. Pharmacol., 43:516 (1993). A stable Chinese hamster ovary cell line expressing the human 5-HT1A receptor subtype (5-HT1A.CHO cells) was employed throughout this study. Cells were maintained in DMEM supplemented with 10% fetal calf serum, non-essential amino acids and penicillin/streptomycin.
Cells were grown to 95-100% confluency as a monolayer before membranes were harvested for binding studies. Cells were gently scraped from the culture plates, transferred to centrifuge tubes, and washed twice by centrifugation (2000 rpm for 10 min., 4° C.) in buffer (50 mM Tris; pH 7.5). The resulting pellets were aliquoted and maintained at -80° C. On the day of assay, the cells were thawed on ice, and resuspended in buffer. Studies were conducted using [^3 H]8-OH-DPAT as the radioligand. The binding assay was performed in 96 well microtiter plates in a final total volume of 250 μL of buffer. Comparison experiments were performed by using 7 concentrations of unlabelled drug and a final ligand concentration of 1.5 nM. Non-specific binding was determined in the presence of 10 μM 5HT. Saturation analysis was conducted by using [^3 H]8-OH-DPAT at concentrations ranging from 0.3-30 nM. Following a 30 minute incubation at room temperature, the reaction was terminated by the addition of ice cold buffer and rapid filtration using a M-96 Brandel Cell Harvester (Gaithersburg, Md.) through a GF/B filter presoaked for 30 minutes in 0.5% polyethyleneimine.

5-HT1A cloned receptor = target: T2, 5-HT1A cloned receptor (Homo sapiens, UniProt P08908); test: [35S]-GTPγS binding assay, 5-HT1A cloned receptor membrane fragments; assay type: biochemical; conditions: maximum agonist response defined by excess 8-OH-DPAT; value in parentheses; read-out: GTPgS % EMax
T2 construct: expressed in transfected cells; host or cells: Chinese hamster ovary cells (5-HT1A.CHO)
T2 sequence (P08908 1-422): T1 sequence (P08908 1-422)
From the text: as §1
The [^35 S]-GTPγS binding assay was similar to that used by Lazareno and Birdsall, Br. J. Pharmacol. 109:1120 (1993). Briefly, 5-HT1A cloned receptor membrane fragments (as used for 5-HT1A receptor binding assays) were stored at -70° C. When needed, membranes were rapidly thawed, centrifuged at 40,000×g for 10 minutes and resuspended at 4° C. for 10 minutes in assay buffer (25 mM HEPES, 3 mM MgCl2, 100 mM NaCl, 1 mM EDTA, 10 uM GDP, […], pH 8.0). These membranes were then incubated for 30 min at 30° C. with [^35 S]GTPgS (1 nM) in the presence of vehicle, test compound (one to eight concentrations), or excess 8-OH-DPAT to define maximum agronist response. All reactions were terminated by the addition of ice cold Tris buffer followed by rapid filtration using a Tom Tech® filtration device to separate bound from free [^35 S]GTPgS. Agonists produced an increase in the amount of [^35 S]GTPgS bound whereas antagonists produced no increase in binding. Bound radioactivity was counted and analyzed as above.

serotonin transporter = target: T3, serotonin transporter (Rattus norvegicus, UniProt P31652); test: affinity for the serotonin transporter (ST), 3H-paroxetine, rat frontal cortical membranes; assay type: binding, rat (male Sprague-Dawley); conditions: 3H-paroxetine 0.1 nM, 60 min, 25° C.
T3 construct: frontal cortical membranes prepared from male Sprague-Dawley rats; from tissue; host or cells: rat (male Sprague-Dawley) frontal cortex membranes
T3 sequence (P31652 whole entry): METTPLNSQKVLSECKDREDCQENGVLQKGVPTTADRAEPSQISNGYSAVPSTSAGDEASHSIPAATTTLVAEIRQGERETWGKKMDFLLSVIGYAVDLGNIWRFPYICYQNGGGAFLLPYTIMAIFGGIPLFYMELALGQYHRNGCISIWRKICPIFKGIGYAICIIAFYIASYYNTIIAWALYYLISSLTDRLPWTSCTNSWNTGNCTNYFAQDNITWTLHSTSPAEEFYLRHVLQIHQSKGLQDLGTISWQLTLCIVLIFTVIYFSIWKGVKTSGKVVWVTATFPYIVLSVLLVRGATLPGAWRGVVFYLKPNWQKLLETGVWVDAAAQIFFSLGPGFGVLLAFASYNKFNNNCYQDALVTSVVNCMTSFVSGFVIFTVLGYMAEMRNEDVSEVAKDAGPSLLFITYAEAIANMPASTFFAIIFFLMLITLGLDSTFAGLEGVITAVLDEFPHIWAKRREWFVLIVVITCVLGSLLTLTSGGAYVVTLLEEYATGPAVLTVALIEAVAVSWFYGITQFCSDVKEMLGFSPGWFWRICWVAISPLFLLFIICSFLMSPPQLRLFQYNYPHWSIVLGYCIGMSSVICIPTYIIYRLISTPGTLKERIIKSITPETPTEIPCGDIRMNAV
Experimental: A protocol similar to that used by Cheetham et al., Neuropharmacol., 32:737 (1993) was used to determine the affinity of compounds for the serotonin transporter. Briefly, frontal cortical membranes prepared from male Sprague-Dawley rats were incubated with ^3 H-parsoxetinc (0.1 nM) for 60 min at 25° C. All tubes also contained either vehicle, test compound (one to eight concentrations), or a saturating concentration of fluoxetine (10 μM) to define […]. All reactions were terminated by the addition of ice cold Tris buffer followed by rapid filtration using a Tom Tech filtration device to separate bound from free ^3 H-paroxetine. Bound radioactivity was quantitated using a Wallac 1205 Beta Plate® counter. Nonlinear regression analysis was used to determine IC50 values which were converted to Ki values using the method set forth in Cheng and Prusoff, Biochem. Pharmacol., 22:3099 (1973) ([…].

[1] = [3H]8-OH-DPAT, 1.5 nM, 5-HT1A.CHO membranes, read-out: 5-HT1A Ki

inhibition at 1 µM (human 5-HT1A receptor; [3H]8-OH-DPAT) [%] | Structure (SMILES) | pKi (human 5-HT1A receptor) | Emax (5-HT1A cloned receptor) [%] | pKi (serotonin transporter) | pKi (human 5-HT1A receptor; [1])
26 | COc1ccc2c(c1)CN([C@H]1CC[C@@H](c3c[nH]c4ccc(C#N)cc43)CC1)CC2 [Example 1a, 3-[(1,4-cis)-4-(7-Methoxy-3,4-dihydro-1H-isoquinolin-2-yl)-cyclohexyl]-1H-indole-5-carbonitrile] | – | – | – | –
48 | COc1ccc2c(c1)CN([C@H]1CC[C@H](c3c[nH]c4ccc(C#N)cc43)CC1)CC2 [Example 1b, 3-[(1,4-trans)-4-(7-Methoxy-3,4-dihydro-1H-isoquinolin-2-yl)-cyclohexyl]-1H-indole-5-carbonitrile] | – | – | – | –
– | COc1ccc2c(c1)CCN([C@H]1CC[C@H](c3c[nH]c4ccc(C#N)cc43)CC1)C2 [Example 3b, 3-[(1,4-trans)-4-(6-Methoxy-3,4-dihydro-1H-isoquinolin-2-yl)-cyclohexyl]-1H-indole-5-carbonitrile] | 6.52 | 0 | – | –
10 | N#Cc1ccc2[nH]cc([C@H]3CC[C@H](N4CCc5ccccc5C4)CC3)c2c1 [Example 5b, 3-[(1,4-trans)-4-(3,4-Dihydro-1H-isoquinolin-2-yl)-cyclohexyl]-1H-indole-carbonitrile] | – | – | – | –
14 | COc1cccc2c1CN([C@H]1CC[C@@H](c3c[nH]c4ccc(C#N)cc43)CC1)CC2 [Example 2a, 3-[(1,4-cis)-4-(8-Methoxy-3,4-dihydro-1H-isoquinolin-2-yl)-cyclohexyl]-1H-indole-5-carbonitrile] | – | – | – | –
7 | COc1cccc2c1CCN([C@H]1CC[C@@H](c3c[nH]c4ccc(C#N)cc43)CC1)C2 [Example 4a, 3-[(1,4-cis)-4-(5-Methoxy-3,4-dihydro-1H-isoquinolin-2-yl)-cyclohexyl]-1H-indole-5-carbonitrile] | – | 12 | – | –
47 | COc1cccc2c1CCN([C@H]1CC[C@H](c3c[nH]c4ccc(C#N)cc43)CC1)C2 [Example 4b, 3-[(1,4-trans)-4-(5-Methoxy-3,4-dihydro-1H-isoquinolin-2-yl)-cyclohexyl]-1H-indole-5-carbonitrile] | – | 33 | – | –
21 | COc1ccc2c(c1)CCN([C@H]1CC[C@@H](c3c[nH]c4ccc(C#N)cc43)CC1)C2 [Example 3a, 3-[(1,4-cis)-4-(6-Methoxy-3,4-dihydro-1H-isoquinolin-2-yl)-cyclohexyl]-1H-indole-5-carbonitrile] | – | – | – | –
46 | COc1cccc2c1CN([C@H]1CC[C@H](c3c[nH]c4ccc(C#N)cc43)CC1)CC2 [Example 2b, 3-[(1,4-trans)-4-(8-Methoxy-3,4-dihydro-1H-isoquinolin-2-yl)-cyclohexyl]-1H-indole-5-carbonitrile] | – | – | – | –
– | COc1ccc2c(c1)CCN(CCCc1c[nH]c3ccc(F)cc13)C2 [Example 7, 2-[3-(5-Fluoro-1H-indol-3-yl)-propyl]-6-methoxy-1,2,3,4-tetrahydroisoquinoline] | – | 100 | 8.85 | 6.54
– | COc1cccc2c1CCN(CCCc1c[nH]c3ccc(F)cc13)C2 [Example 6, 2-[3-(5-Fluoro-1H-indol-3-yl)-propyl]-5-methoxy-1,2,3,4-tetrahydroisoquinoline] | – | 23 | 8.72 | 6.61

Structure (SMILES) | inhibition at 1 µM (human 5-HT1A receptor; [3H]8-OH-DPAT) [%] | pKi (human 5-HT1A receptor) | Emax (5-HT1A cloned receptor) [%] | pKi (serotonin transporter) | pKi (human 5-HT1A receptor; [1])
N#Cc1ccc2[nH]cc([C@H]3CC[C@@H](N4CCc5ccccc5C4)CC3)c2c1 [Example 5a, 3-[(1,4-cis)-4-(3,4-Dihydro-1H-isoquinolin-2-yl)-cyclohexyl]-1H-indole-5-carbonitrile] | 0 | – | – | 8.89 | –
Fc1ccc2[nH]cc(CCCN3CCc4ccccc4C3)c2c1 [Example 8, 2-[3-(5-Fluoro-1H-indol-3-yl)-propyl]-1,2,3,4-tertrahydroisoquinoline] | 48 | – | 13 | 8.31 | –
